In ChEMBL document CHEMBL4390652, “Design, biological evaluation and X-ray crystallography of nanomolar multifunctional ligands targeting simultaneously acetylcholinesterase and glycogen synthase kinase-3” (Eur J Med Chem, 2019):

What was measured:
Acetylcholinesterase = Acetylcholinesterase (Homo sapiens, UniProt P22303); assay: Inhibition of human recombinant AChE using ATCh as substrate preincubated for 20 mins followed by substrate addition and measured for 3 mins by Ellman method
Cholinesterase = Cholinesterase (Homo sapiens, UniProt P06276); assay: Inhibition of human serum BChE using BTCh as substrate preincubated for 20 mins followed by substrate addition and measured for 3 mins by Ellman's method
[1] = biological target: Cyclin-dependent kinase 5/CDK5 activator 1 (Homo sapiens, UniProt Q00535); format: protein-complex assay
Description: Inhibition of human recombinant CDK5/p25 using histone H1 as substrate in presence of [gamma-33P]ATP incubated for 30 mins by liquid scintillation counting assay

Huh-7 = assay: Cytotoxicity against human HuH7 cells assessed as growth inhibition incubated for 48 hrs by Hoechst 33342 staining based assay; format: cell-based; details: Huh-7, 48 h
Caco-2 = assay: Cytotoxicity against human Caco2 cells assessed as growth inhibition incubated for 48 hrs by Hoechst 33342 staining based assay; format: cell-based; details: Caco-2, 48 h
MDA-MB-231 = assay: Cytotoxicity against human MDA-MB-231 cells assessed as growth inhibition incubated for 48 hrs by Hoechst 33342 staining based assay; format: cell-based; details: MDA-MB-231, 48 h
HCT-116 = assay: Cytotoxicity against human HCT116 cells assessed as growth inhibition incubated for 48 hrs by Hoechst 33342 staining based assay; format: cell-based; details: HCT-116, 48 h
PC-3 = assay: Cytotoxicity against human PC3 cells assessed as growth inhibition incubated for 48 hrs by Hoechst 33342 staining based assay; format: cell-based; details: PC-3, 48 h
NCI-H727 = assay: Cytotoxicity against human NCI-H727 cells assessed as growth inhibition incubated for 48 hrs by Hoechst 33342 staining based assay; format: cell-based; details: NCI-H727, 48 h
[2] = biological target: Glycogen synthase kinase-3 (Sus scrofa, UniProt B2LUN4+I6LNT8)
Description: Inhibition of native porcine brain GSK-3alpha/beta using GS-1 as substrate incubated for 30 mins in presence of [gamma-33P]ATP by liquid scintillation counting assay

HaCaT = assay: Cytotoxicity against human HaCaT cells assessed as growth inhibition incubated for 48 hrs by Hoechst 33342 staining based assay; format: cell-based
[3] = Cytotoxicity against human SH-SY5Y cells assessed as reduction in cell viability at 100 uM incubated for 24 hrs by MTT assay relative to untreated cells; format: cell-based; details: read-out: INH
SH-SY5Y = assay: Cytotoxicity against human SH-SY5Y cells assessed as reduction in cell viability incubated for 72 hrs by MTT assay; format: cell-based
MDCK-MDR1 = assay: Cytotoxicity against MDCK2-MDR1 cells assessed as reduction in cell viability at 75 uM incubated for 2 hrs by MTT assay; format: ADME, cell-based, Canis lupus familiaris; details: dog, mdck-mdr1, 2 h
MDR1 [4] = assay: in vitro; details: dog, MDCK-MDR1
Description: Apparent permeability across apical to basolateral side in MDCK2-MDR1 cells by HPLC analysis

MDR1 [5] = assay: in vitro; details: dog, MDCK-MDR1; remark: listed apart in the source
Description: Apparent permeability across basolateral to apical side in MDCK2-MDR1 cells by HPLC analysis

MDR1 [6] = assay: in vitro; details: dog, MDCK-MDR1; remark: listed apart in the source
Description: Efflux ratio of apparent permeability from basolateral to apical over apical to basolateral side in MDCK2-MDR1 cells by HPLC analysis

Cyclin-dependent kinase 5/CDK5 activator 1, sequence (Q00535 whole entry): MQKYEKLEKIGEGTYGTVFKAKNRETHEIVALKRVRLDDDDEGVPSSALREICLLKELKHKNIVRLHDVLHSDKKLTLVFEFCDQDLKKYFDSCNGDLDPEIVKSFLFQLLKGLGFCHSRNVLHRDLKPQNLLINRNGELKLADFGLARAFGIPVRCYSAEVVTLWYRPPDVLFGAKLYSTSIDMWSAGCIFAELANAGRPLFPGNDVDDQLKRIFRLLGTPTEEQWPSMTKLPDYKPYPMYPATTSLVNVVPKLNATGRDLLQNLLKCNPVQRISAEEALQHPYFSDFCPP
Cyclin-dependent kinase 5/CDK5 activator 1, sequence (Q15078 whole entry, further chain): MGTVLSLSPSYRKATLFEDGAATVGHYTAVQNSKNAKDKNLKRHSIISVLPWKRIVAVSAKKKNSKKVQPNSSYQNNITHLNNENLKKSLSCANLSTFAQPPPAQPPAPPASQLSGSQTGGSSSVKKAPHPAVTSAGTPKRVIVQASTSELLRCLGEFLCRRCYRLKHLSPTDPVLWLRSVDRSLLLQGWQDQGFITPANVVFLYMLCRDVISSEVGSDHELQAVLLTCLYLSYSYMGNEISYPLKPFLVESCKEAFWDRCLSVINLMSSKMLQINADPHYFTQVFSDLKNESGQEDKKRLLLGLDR
Cholinesterase, sequence (P06276 whole entry): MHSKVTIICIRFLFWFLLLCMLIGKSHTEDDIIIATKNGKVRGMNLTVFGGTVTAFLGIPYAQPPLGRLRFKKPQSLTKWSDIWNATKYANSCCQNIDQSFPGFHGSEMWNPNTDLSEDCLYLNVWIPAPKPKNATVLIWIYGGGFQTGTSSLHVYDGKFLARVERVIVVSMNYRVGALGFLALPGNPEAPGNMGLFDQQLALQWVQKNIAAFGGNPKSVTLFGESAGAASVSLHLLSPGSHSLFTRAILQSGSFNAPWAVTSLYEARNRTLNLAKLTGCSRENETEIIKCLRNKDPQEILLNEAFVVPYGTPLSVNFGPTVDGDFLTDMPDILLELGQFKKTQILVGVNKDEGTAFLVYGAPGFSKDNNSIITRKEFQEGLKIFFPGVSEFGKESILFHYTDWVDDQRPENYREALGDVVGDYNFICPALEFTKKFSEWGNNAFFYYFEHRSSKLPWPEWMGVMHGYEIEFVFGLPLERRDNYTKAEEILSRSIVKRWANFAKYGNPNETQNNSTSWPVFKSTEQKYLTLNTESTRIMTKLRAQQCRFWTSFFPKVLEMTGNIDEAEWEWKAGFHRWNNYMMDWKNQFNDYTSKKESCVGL
Acetylcholinesterase, sequence (P22303 whole entry): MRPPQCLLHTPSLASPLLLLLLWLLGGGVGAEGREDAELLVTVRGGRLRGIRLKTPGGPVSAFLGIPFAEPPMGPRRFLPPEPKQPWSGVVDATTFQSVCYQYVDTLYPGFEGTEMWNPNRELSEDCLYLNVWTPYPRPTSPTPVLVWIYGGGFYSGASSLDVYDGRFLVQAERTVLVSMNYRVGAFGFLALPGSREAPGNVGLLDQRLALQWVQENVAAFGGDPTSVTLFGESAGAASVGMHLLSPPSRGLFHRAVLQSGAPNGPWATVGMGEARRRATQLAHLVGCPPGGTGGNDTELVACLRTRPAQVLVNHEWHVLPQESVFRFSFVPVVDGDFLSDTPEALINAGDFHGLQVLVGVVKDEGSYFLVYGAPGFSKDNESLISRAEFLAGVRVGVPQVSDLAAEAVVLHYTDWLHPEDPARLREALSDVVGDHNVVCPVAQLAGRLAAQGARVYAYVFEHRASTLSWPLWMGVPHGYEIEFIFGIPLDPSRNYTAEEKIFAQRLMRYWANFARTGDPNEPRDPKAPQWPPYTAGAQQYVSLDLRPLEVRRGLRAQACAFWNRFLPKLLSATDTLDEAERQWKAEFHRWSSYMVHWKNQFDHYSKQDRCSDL

| Structure (SMILES) | IC50 (Acetylcholinesterase) [nM] | IC50 (Cholinesterase) [nM] | IC50 [1] [nM] | IC50 (Huh-7) [nM] | IC50 (Caco-2) [nM] | IC50 (MDA-MB-231) [nM] | IC50 (HCT-116) [nM] | IC50 (PC-3) [nM] | IC50 (NCI-H727) [nM] | IC50 [2] [nM] | also measured |
| --- | --- | --- | --- | --- | --- | --- | --- | --- | --- | --- | --- |
| O=C(Nc1cc(-c2cn(CCNc3c4c(nc5ccccc35)CCCC4)nn2)ccn1)Nc1cccc2c1[C@@H]1CCCCN1C2=O | 13.7 | 254 | 1100 | 2600 | 10000 | 4000 | 2700 | 6000 | 7000 | 19 |  |
| O=C(Nc1cc(-c2cn(CCNc3c4c(nc5ccccc35)CCCC4)nn2)ccn1)Nc1cccc2c1[C@H]1CCCCN1C2=O | 9.5 | 395 | 500 | 3500 | 8000 | 2000 | 2200 | 3000 | 5000 | 7 |  |
| C#Cc1ccnc(NC(=O)Nc2cccc3c2[C@H]2CCCCN2C3=O)c1 |  |  | 18 |  |  |  |  |  |  | 33 |  |
| C#Cc1ccnc(NC(=O)Nc2cccc3c2[C@@H]2CCCCN2C3=O)c1 |  |  | 50 |  |  |  |  |  |  | 90 |  |
| c1ccc2c(NCCn3ccnn3)c3c(nc2c1)CCCC3 |  |  | > 10000 |  |  |  |  |  |  | > 10000 |  |
| C#CCOCc1ccnc(NC(=O)Nc2cccc3c2C2CCCCN2C3=O)c1 (racemic) |  |  | 150 |  |  |  |  |  |  | 60 |  |
| C#CCN(C)Cc1ccnc(NC(=O)Nc2cccc3c2C2CCCCN2C3=O)c1 (racemic) |  |  | 90 |  |  |  |  |  |  | 11 |  |
| C#Cc1ccc(NC(=O)Nc2cccc3c2C2CCCCN2C3=O)nc1 (racemic) |  |  | > 10000 |  |  |  |  |  |  | > 10000 |  |
| CN(Cc1ccnc(NC(=O)Nc2cccc3c2C2CCCCN2C3=O)c1)Cc1cn(CCNc2c3c(nc4ccccc24)CCCC3)nn1 (racemic) | 58.6 | 206 | 310 | 2000 | 9000 | 2000 | 2000 | 3000 | 4000 | 10 | IC50 (HaCaT): 2000 nM; cytotoxicity at 24 h, 100 µM [3]: 50%; IC50 (SH-SY5Y): 25000 nM; Activity (MDCK-MDR1): Non-Toxic; Papp A→B (MDR1 [4]): 10.1 ×10⁻⁶ cm/s; Papp B→A (MDR1 [5]): 8.4 ×10⁻⁶ cm/s; efflux ratio (MDR1 [6]): 0.83 |
| O=C(Nc1cc(COCc2cn(CCNc3ccncc3)nn2)ccn1)Nc1cccc2c1C1CCCCN1C2=O (racemic) |  |  | 200 |  |  |  |  |  |  | 30 |  |
| C#Cc1cccc(NC(=O)Nc2cccc3c2C2CCCCN2C3=O)n1 (racemic) |  |  | 80 |  |  |  |  |  |  | 300 |  |
| C#CCCc1ccnc(NC(=O)Nc2cccc3c2C2CCCCN2C3=O)c1 (racemic) |  |  | 70 |  |  |  |  |  |  | 15 |  |
| O=C(Nc1cc(COCc2cn(CCNc3c4c(nc5ccccc35)CCCC4)nn2)ccn1)Nc1cccc2c1C1CCCCN1C2=O (racemic) | 20.8 | 169 | 300 | 4000 | 20000 | 4000 | 4000 | 7000 | 9000 | 10 | IC50 (HaCaT): 4000 nM; cytotoxicity at 24 h, 100 µM [3]: 50%; IC50 (SH-SY5Y): 22000 nM; Activity (MDCK-MDR1): Non-Toxic; Papp A→B (MDR1 [4]): 13.5 ×10⁻⁶ cm/s; Papp B→A (MDR1 [5]): 20.8 ×10⁻⁶ cm/s; efflux ratio (MDR1 [6]): 1.54 |
| O=C(Nc1cc(COCc2cn(CCCc3ccccc3)nn2)ccn1)Nc1cccc2c1C1CCCCN1C2=O (racemic) |  |  | 260 |  |  |  |  |  |  | 8 |  |
| O=C(Nc1cccc(-c2cn(CCNc3c4c(nc5ccccc35)CCCC4)nn2)n1)Nc1cccc2c1C1CCCCN1C2=O (racemic) | 133 | 21.1 | 3100 | 18000 | 24000 | 17000 | 17000 | 27000 | > 25000 | 4200 |  |
| Cn1cc(COCc2ccnc(NC(=O)Nc3cccc4c3C3CCCCN3C4=O)c2)nn1 (racemic) |  |  | 250 |  |  |  |  |  |  | 25 |  |
| C#Cc1ccnc(NC(=O)Nc2cccc3c2C2CCCCN2C3=O)c1 (racemic) |  |  | 68 |  |  |  |  |  |  | 41 |  |
| O=C(Nc1cc(COCc2cn(CCNc3ccnc4ccccc34)nn2)ccn1)Nc1cccc2c1C1CCCCN1C2=O (racemic) |  |  | 240 |  |  |  |  |  |  | > 10000 |  |
| O=C(Nc1ccc(-c2cn(CCNc3c4c(nc5ccccc35)CCCC4)nn2)cn1)Nc1cccc2c1C1CCCCN1C2=O (racemic) | 0.8 | 185 | > 10000 | > 25000 | > 25000 | > 25000 | > 25000 | > 25000 | > 25000 | > 10000 |  |
| O=C(Nc1cc(CCc2cn(CCNc3c4c(nc5ccccc35)CCCC4)nn2)ccn1)Nc1cccc2c1C1CCCCN1C2=O (racemic) | 23.6 | 65.7 | 800 | 2900 | 4800 | 2000 | 1100 | 1600 | 6300 | 21 | IC50 (HaCaT): 1900 nM |
